Measurements from paper PMC12459020, “Chemical Probes that Target a Dissociative LuxR-Type Quorum Sensing Receptor in Gram-Negative Bacteria” (ACS Chemical Biology, 2025).
Where two headings read alike, the source gives them in different places.

Tests used:
EsaR [1] = target: T1, EsaR (Pantoea stewartii subsp. stewartii, UniProt P54293); assay: cell-based; details: for activation at 100 µM / inhibition at 100 µM: 3.5 h; for activation at 100 µM: read-out: EsaR-activated (pesaS) [%] agonism; for inhibition at 100 µM: read-out: EsaR-activated (pesaS) antagonism; for EsaR agonism, in words: E. coli EsaR reporters, primary screen at 100 μM
T1 construct: expressed in transfected cells; host or cells: E. coli JLD271 (K12 ΔsdiA), arabinose-induced pJN105-esaR
Excerpt: (§1) EsaR transcriptional activation and repression were examined using E. coli and P. stewartii reporters (strains and plasmids listed in Table S1; see Methods section for assay details). […] We constructed reporters in E. coli based on previously reported EsaR reporters (Table S1). Each strain contained an EsaR expression plasmid (pJN105-esaR) and a reporter plasmid with either an EsaR-activated promoter (pesaS) or an EsaR-repressed promoter (pesaR) upstream of luxABCDE or GFP.
(§2) Gibson assembly was used to create all constructs. Plasmid pJN105-esaR was created by amplifying esaR from pAC-esaR and inserting it into pJN105. pesaSlux was created by inserting pesaS, amplified from pPesaR-AC:gfp, into the pCS-pesaRlux backbone. The pesaR promoter was amplified from pCS-pesaRlux and inserted into the pPesaR-AC:gfp backbone to create pesaR:GFP. P. stewartii reporter strains were created by transforming pesaR:GFP or pPesaR-AC:gfp into ESN51 by conjugation using E. coli S17 λpir as the donor strain. See SI for details of E. coli ExpR2 reporter construction.
(§3) Overnight cultures were diluted 1:10 in LB medium with appropriate antibiotics and grown at 37 °C (200 rpm) to an OD600 of 0.22–0.27 before induction with 4 mg mL^–1 arabinose. OD600 was measured by placing 200 μL of culture into a 96-well plate and reading optical density using the BioTek Synergy 2 plate reader. Assays were performed in technical triplicate in clear-bottom, white and clear-bottom, black 96-well microtiter plates (Corning Costar 3903 and 3904) for luminescence and fluorescence reporters, respectively. Compounds were dissolved in DMSO, and 2 μL of this stock, or DMSO as a negative control, was added to each well prior to adding 198 μL of induced culture. Plates were incubated at 37 °C (200 rpm) for 3.5 h. Each well was mixed by pipetting before reading OD600 and either luminescence or fluorescence. Single-point screens were performed with one or two biological replicates, and all dose–response curves were performed in biological triplicate. EC50 values were calculated based on a nonlinear regression of log(concentration) vs response (three parameters) using GraphPad Prism 9 software.

ExpR1 = details: cited from earlier work; for ExpR1 antagonism: 5 µM compound against 5 µM OHHL, negative values indicate potential activators, ref 6 (SI; Palmer et al., 2011); for ExpR1 [%] (agonism, activation): compounds at 200 μM, cellulase activity in P. versatile AC5117, ref Palmer et al., 2011 (main ref 44, SI ref 6)
EsaR [2] = target: T1, EsaR; assay: cell-based; details: 3.5 h; for activation at 100 µM: read-out: EsaR-repressed (pesaR) [%] agonism; for inhibition at 100 µM: read-out: EsaR-repressed (pesaR) antagonism
Excerpt: as §1, §2, §3

ExpR2 = details: cited from earlier work; for ExpR2 antagonism (percent inhibition): 5 µM compound against 5 µM OHHL, negative values indicate potential activators, ref 6 (SI; Palmer et al., 2011); for ExpR2 [%] (agonism, percent activation): compounds at 200 μM, cellulase activity in P. versatile AC5099, ref Palmer et al., 2011 (main ref 44, SI ref 6)
LuxR = details: cited from earlier work; for LuxR antagonism: 5 µM compound against 5 µM OHHL, negative values indicate potential activators, ref 6 (SI; Palmer et al., 2011); for LuxR [%] (agonism, activation): compounds at 200 μM, luminescence in V. fischeri ES114 (ΔluxI), ref Palmer et al., 2011 (main ref 44, SI ref 6)

T1 sequence (P54293 whole entry): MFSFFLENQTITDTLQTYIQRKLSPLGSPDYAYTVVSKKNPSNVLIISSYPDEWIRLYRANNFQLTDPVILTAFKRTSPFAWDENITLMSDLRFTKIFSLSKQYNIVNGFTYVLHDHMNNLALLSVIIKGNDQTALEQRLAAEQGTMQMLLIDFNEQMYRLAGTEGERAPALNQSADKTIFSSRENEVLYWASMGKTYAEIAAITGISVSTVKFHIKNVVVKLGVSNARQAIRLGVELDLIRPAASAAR

SMILES	activation at 100 µM (EsaR [1]) [%]	inhibition at 100 µM (EsaR [1]) [%]	EsaR agonism, in words (EsaR [1])	ExpR1 antagonism (ExpR1) [%]	ExpR1 [%] (agonism, activation) (ExpR1)	activation at 100 µM (EsaR [2]) [%]	inhibition at 100 µM (EsaR [2]) [%]	ExpR2 antagonism (percent inhibition) (ExpR2) [%]	ExpR2 [%] (agonism, percent activation) (ExpR2)	LuxR antagonism (LuxR) [%]	LuxR [%] (agonism, activation) (LuxR)	fold less potent than OHHL in EsaR (EC50 ratio) (EsaR [1]; E. coli EsaR-activated reporter EC50 values) [fold]
CCCCCC(=O)CC(=O)N[C@H]1CCOC1=O [OOHL, 3-(oxo)-octanoyl HL, reference compound]	100	-89	strongly activated	65	29	91	-138	26	78	63	24	–
O=C(/C=C/c1ccccc1)N[C@H]1CCOC1=O [B10]	12	-6	–	57	4	-2	17	49	18	48	3	–
CCCCCCCCCCCC(=O)N[C@H]1CCOC1=O [dDHL, reference compound]	45	-63	–	77	0	35	-27	62	31	73	1	–
O=C(N[C@H]1CCOC1=O)c1ccccc1 [B8]	2	-4	–	37	0	6	-4	23	6	34	2	–
O=C(Cc1ccc2ccccc2c1)N[C@H]1CCOC1=O [E12]	0	-10	–	58	8	7	37	5	56	83	2	–
O=C(Cc1ccccc1[N+](=O)[O-])N[C@H]1CCOC1=O [C15]	-10	-6	–	27	9	-1	0	3	19	23	4	–
O=C(Cc1ccccc1Br)N[C@H]1CCOC1=O [C9]	-2	-8	–	49	9	0.4	-14	32	32	47	12	–
O=C(Cc1ccccc1I)N[C@H]1CCOC1=O [C12]	-9	-12	–	65	11	9	4	55	24	63	7	–
O=C(Cc1cccc(I)c1)N[C@H]1CCOC1=O [C11, 3-iodo PHL]	65	-57	agonized EsaR	83	32	44	-56	63	61	78	28	~300
